Consider three compounds from ChEMBL document CHEMBL1821695, “Tetrazine-trans-cyclooctene ligation for the rapid construction of integrin αvβ₃ targeted PET tracer based on a cyclic RGD peptide” (Bioorg Med Chem Lett, 2011).

The target in data set [1] is Integrin alpha-V/beta-3 (Homo sapiens) (UniProt P05106+P06756). The experiment in a line: Displacement of [125]I-echistatin from alphaVbeta3 integrin expressed in human U87MG cells by competitive binding assay. Type of data set: cell-based. The conditions noted are these: U-87MG ATCC.
Data set [2] can be described thus: Chemical stability of the compound in phosphate buffer saline in presence of 5% EtOH after 6 hrs by Radio-HPLC analysis. It is filed as physicochemical. The following applies: phosphate buffered saline with 5% EtOH; read-out: Stability.
Data set [3] relates to Mus musculus. The experiment in a line: Biodistribution in tumor of athymic nude mouse bearing U87MG cells at 3.7 MBq, iv after 0.5 hrs by micro PET scan method. The conditions noted are these: in vivo. It is filed as ADME, organism-based, Neoplasm, U-87MG ATCC.
In data set [4] the test system is Mus musculus. The data set can be described thus: Biodistribution in tumor of athymic nude mouse bearing U87MG cells at 3.7 MBq, iv after 1 hr by micro PET scan method. It is filed as ADME, organism-based, Neoplasm, U-87MG ATCC. The conditions noted are these: in vivo.
In data set [5] the test system is Mus musculus. The data set can be described thus: Biodistribution in tumor of athymic nude mouse bearing U87MG cells at 3.7 MBq, iv after 2 hrs by micro PET scan method. The following applies: in vivo. It is filed as ADME, organism-based, Neoplasm, U-87MG ATCC.
Data set [6] deals with Mus musculus. The data set can be described thus: Biodistribution in tumor of athymic nude mouse bearing U87MG cells at 3.7 MBq, iv after 4 hrs by micro PET scan method. Type of data set: ADME, organism-based, Neoplasm, U-87MG ATCC. The conditions noted are these: in vivo.
For data set [7], the system named is Mus musculus. The experiment in a line: Biodistribution in abdomen of athymic nude mouse bearing U87MG cells at 3.7 MBq, iv upto 4 hrs postinjection by micro PET scan method. It is filed as ADME, organism-based, U-87MG ATCC. The conditions noted are these: in vivo.
The test system of data set [8] is Mus musculus. The data set can be described thus: Biodistribution in tumor of athymic nude mouse bearing U87MG cells after 0.5 hrs co-injecting with 10 mg/kg of c(RGDyK) by micro PET scan method. Type of data set: ADME, organism-based, Neoplasm, U-87MG ATCC. The following applies: in vivo. Further details: dose 10 mg/kg; call rule not given here.
Data set [9] has as its system Mus musculus. The data set can be described thus: Biodistribution in tumor of athymic nude mouse bearing U87MG cells after 1 hr co-injecting with 10 mg/kg of c(RGDyK) by micro PET scan method. Type of data set: ADME, organism-based, Neoplasm, U-87MG ATCC. Further details: dose 10 mg/kg. The following applies: in vivo.
In data set [10] the test system is Mus musculus. The experiment in a line: Biodistribution in tumor of athymic nude mouse bearing U87MG cells after 2 hrs co-injecting with 10 mg/kg of c(RGDyK) by micro PET scan method. The following applies: in vivo. More on the design: dose 10 mg/kg. Type of data set: ADME, organism-based, Neoplasm, U-87MG ATCC.
Data set [11] relates to Mus musculus. The experiment in a line: Biodistribution in tumor of athymic nude mouse bearing U87MG cells after 4 hrs co-injecting with 10 mg/kg of c(RGDyK) by micro PET scan method. It is filed as ADME, organism-based, Neoplasm, U-87MG ATCC. More on the design: dose 10 mg/kg. The conditions noted are these: in vivo.

For the compound `N=C(N)NCCC[C@H]1NC(=O)CNC(=O)[C@@H](CC(=O)O)NC(=O)[C@H](Cc2ccc(O)cc2)NC(=O)[C@@H](CCCCNC(=O)CCCC(=O)Nc2ccc(C3=NN=C(c4ccccn4)[C@@H]4CCC[C@@H](OCCF)CC[C@@H]34)nc2)NC1=O`, in [1], the Activity result was “Dose-dependent effect”.
For `N=C(N)NCCC[C@H]1NC(=O)CNC(=O)[C@@H](CC(=O)O)NC(=O)[C@H](Cc2ccc(O)cc2)NC(=O)[C@@H](CCCCNC(=O)CCCC(=O)Nc2ccc(C3=NN=C(c4ccccn4)[C@@H]4CCC[C@@H](OCC[18F])CC[C@@H]34)nc2)NC1=O`, in data set [2], the remaining at 6 h was greater than 95%. In addition, the Drug uptake in data set [3] is listed as 4.6 % ID/g; in [4], 4.4 % ID/g; in data set [5] it was 4.2 % ID/g; in data set [6], 2.7 % ID/g; in data set [7], “Active”; in data set [8], 1.4 % ID/g. In addition, the Drug uptake in data set [9] came out at 1 % ID/g; in [10], 0.6 % ID/g; in [11], 0.4 % ID/g.
Consider `N=C(N)NCCC[C@H]1NC(=O)CNC(=O)[C@@H](CC(=O)O)NC(=O)[C@H](Cc2ccc(O)cc2)NC(=O)[C@@H](CCCCN)NC1=O`, for which the Activity entry in data set [1] is “Dose-dependent effect”.
